Where “and” joins values, the source holds several entries; their conditions need not be identical. Identical values can stand only once. Toxic doses and inconclusive results are not listed. Rule for the calls: active = survival T/C of 150% or more; inactive = T/C below 125% in these data.
System: P388 leukemia ip, CD2F1 mice, survival T/C
Test: NCI In Vivo Anticancer Drug Screen. Data for tumor model P388 Leukemia (intraperitoneal) in CD2F1 (CDF1) mice
Settings: endpoint: median survival time, higher = longer survival
Summary of the method: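 Mice carrying the transplanted tumor received test compound or vehicle. Survival was recorded in each group, and the value is the treated-group measurement divided by that of the vehicle-treated control group.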

[1] = dose: 25.0 mg/kg/injection, schedule: Q01DX009 (ip), vehicle: saline
[2] = dose: 50.0 mg/kg/injection, schedule: Q01DX009 (ip), vehicle: saline

Measured: T/C

COc1cccc(N=Nc2c(-c3ccccc3)nn(C(N)=S)c2-c2ccccc2)c1
inactive: dose: 100.0 mg/kg/injection, schedule: Q04DX002 (ip), vehicle: saline with Tween-80 98 % of control | dose: 200.0 mg/kg/injection, schedule: Q04DX002 (ip), vehicle: saline with Tween-80 95 % of control | dose: 400.0 mg/kg/injection, schedule: Q04DX002 (ip), vehicle: saline with Tween-80 88 % of control

O=C1C=CC(=O)C(C2OC(=O)C(Br)=C2Br)=C1 (stereo unspecified)
inactive: dose: 50.0 mg/kg/injection, schedule: Q01DX005 (ip), vehicle: distilled water + Tween-80 114 % of control | dose: 100.0 mg/kg/injection, schedule: Q01DX005 (ip), vehicle: distilled water + Tween-80 115 % of control

CCOc1ccc(N=Nc2c(O)n(-c3ccccc3Cl)c(=S)n(-c3ccc(OC)cc3)c2=O)cc1
inactive: dose: 50.0 mg/kg/injection, schedule: Q01DX001 (ip), vehicle: Klucel (hydroxypropylcellulose) (HPC) 97 % of control | dose: 100.0 mg/kg/injection, schedule: Q01DX001 (ip), vehicle: Klucel (hydroxypropylcellulose) (HPC) 102 % of control | dose: 200.0 mg/kg/injection, schedule: Q01DX001 (ip), vehicle: Klucel (hydroxypropylcellulose) (HPC) 97 % of control

CCOC(=O)CCCC(=O)Cl
inactive: dose: 50.0 mg/kg/injection, schedule: Q01DX009 (ip), vehicle: saline with Tween-80 94 % of control | dose: 100.0 mg/kg/injection, schedule: Q01DX009 (ip), vehicle: saline with Tween-80 99 % of control | dose: 200.0 mg/kg/injection, schedule: Q01DX009 (ip), vehicle: saline with Tween-80 96 % of control

O=C(O)C(CS(=O)(=O)O)S(=O)(=O)O (stereo unspecified)
inactive: dose: 7.5 mg/kg/injection, schedule: Q01DX009 (ip), vehicle: saline with Tween-80 110 % of control | dose: 15.0 mg/kg/injection, schedule: Q01DX009 (ip), vehicle: saline with Tween-80 109 % of control | dose: 30.0 mg/kg/injection, schedule: Q01DX009 (ip), vehicle: saline with Tween-80 106 % of control

CN(C)CCCNC1=C(Cl)C(=O)C(NCCCN(C)C)=C(Cl)C1=O
inactive: dose: 6.25 mg/kg/injection, schedule: Q01DX009 (ip), vehicle: saline 91 % of control | dose: 12.5 mg/kg/injection, schedule: Q01DX009 (ip), vehicle: saline 94 % of control | [1] 111 % of control | [2] 89 % of control

O=[N+]([O-])c1ccc(Sc2nc3ccccc3[nH]2)nc1
inactive: dose: 50.0 mg/kg/injection, schedule: Q01DX009 (ip), vehicle: suspension in saline 100 % of control | dose: 100.0 mg/kg/injection, schedule: Q01DX009 (ip), vehicle: suspension in saline 100 % of control | dose: 200.0 mg/kg/injection, schedule: Q01DX009 (ip), vehicle: suspension in saline 99 % of control

Cc1ccc(C)c(C(=O)/C=C/C(=O)O)c1
inactive: dose: 25.0 mg/kg/injection, schedule: Q01DX005 (ip), vehicle: saline with Tween-80 114 % of control | dose: 50.0 mg/kg/injection, schedule: Q01DX005 (ip), vehicle: saline with Tween-80 115 % of control and 117 % of control

CC(=O)N(C)C
inactive: dose: 0.25 % in 0.5 ml injection vol, schedule: Q01DX009 (ip), vehicle: water 102 % of control | dose: 0.5 % in 0.5 ml injection vol, schedule: Q01DX009 (ip), vehicle: water 100 % of control and 102 % of control | dose: 1.0 % in 0.5 ml injection vol, schedule: Q01DX009 (ip), vehicle: water 99 % of control and 102 % of control | dose: 2.0 % in 0.5 ml injection vol, schedule: Q01DX009 (ip), vehicle: water 100 % of control and 101 % of control | dose: 8.0 % in 0.5 ml injection vol, schedule: Q01DX009 (ip), vehicle: water 112 % of control and 113 % of control | dose: 16.0 % in 0.5 ml injection vol, schedule: Q01DX009 (ip), vehicle: water 108 % of control

CC(=O)c1cc(C)oc1C
inactive: [1] 100 % of control | [2] 100 % of control and 111 % of control and 112 % of control | dose: 100.0 mg/kg/injection, schedule: Q01DX009 (ip), vehicle: saline 109 % of control and 111 % of control and 112 % of control | dose: 400.0 mg/kg/injection, schedule: Q01DX009 (ip), vehicle: saline 116 % of control

CN1CCc2cc(O)c(O)cc2C1
inactive: dose: 100.0 mg/kg/injection, schedule: Q04DX003 (ip), vehicle: saline 98 % of control | dose: 200.0 mg/kg/injection, schedule: Q04DX003 (ip), vehicle: saline 103 % of control

Cc1ccc(S(=O)(=O)N/N=C2/C=CC3(CC=CCC3)CC2)cc1 (stereo unspecified)
inactive: dose: 50.0 mg/kg/injection, schedule: Q01DX009 (ip), vehicle: Klucel (hydroxypropylcellulose) (HPC) 109 % of control | dose: 100.0 mg/kg/injection, schedule: Q01DX009 (ip), vehicle: Klucel (hydroxypropylcellulose) (HPC) 100 % of control | dose: 200.0 mg/kg/injection, schedule: Q01DX009 (ip), vehicle: Klucel (hydroxypropylcellulose) (HPC) 100 % of control

C=CC(=O)NC(O)C(Cl)(Cl)Cl (stereo unspecified)
inactive: dose: 50.0 mg/kg/injection, schedule: Q01DX005 (ip), vehicle: Klucel (hydroxypropylcellulose) (HPC) 98 % of control | dose: 100.0 mg/kg/injection, schedule: Q01DX005 (ip), vehicle: Klucel (hydroxypropylcellulose) (HPC) 98 % of control | dose: 200.0 mg/kg/injection, schedule: Q01DX005 (ip), vehicle: Klucel (hydroxypropylcellulose) (HPC) 102 % of control
